Experimental data from paper PMC9965221, “Antiviral Mechanism of Virucidal Sialic Acid Modified Cyclodextrin” (Pharmaceutics, 2023).

Biological target: T1, recombinant HA (A/California/04/2009, Met1-Gln549) (Influenza A virus (A/California/04/2009(H1N1)), UniProt C3W5S1)
T1 construct: Met1-Gln549, His-tagged recombinant, immobilised on anti-His probes
Type: binding

T1 sequence (C3W5S1 entry or part of it, added parts left off): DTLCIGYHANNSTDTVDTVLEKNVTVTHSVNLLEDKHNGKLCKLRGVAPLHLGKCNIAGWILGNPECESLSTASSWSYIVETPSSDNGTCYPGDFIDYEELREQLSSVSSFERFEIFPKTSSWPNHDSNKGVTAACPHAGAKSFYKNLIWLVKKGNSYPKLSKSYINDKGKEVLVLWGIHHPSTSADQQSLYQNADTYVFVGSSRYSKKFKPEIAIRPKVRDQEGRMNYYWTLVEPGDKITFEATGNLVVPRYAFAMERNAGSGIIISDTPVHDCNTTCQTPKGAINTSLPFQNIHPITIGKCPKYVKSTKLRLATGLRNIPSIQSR

For `CC(=O)N[C@H]1[C@H]([C@H](O)[C@H](O)CO)O[C@@](OC[C@H]2O[C@@H](O[C@H]3[C@H](O)[C@@H](NC(C)=O)C(O)O[C@@H]3CO)[C@H](O)[C@@H](O)[C@H]2O)(C(=O)O)C[C@@H]1O` (stereo partly shown) [6′SLN], the Kd was greater than 5 mM.
